Key:
[1] = tested on: primary white adipose progenitor cells; test: RT-qPCR of markers after treating proliferative primary white adipose progenitor cells, then basal differentiation
Experimental: Tissue suspension was sequentially filtered through 100 and 70 μm cell strainers and centrifuged at 800×g for 5 min to pellet SVF cells.
The cell pellet was resuspended in a growth medium (DMEM high glucose containing 20% FBS and 1% penicillin/streptomycin), plated on collagen-coated cell culture plates, and cultured at 37° C. with 5% CO2. To expand adipose progenitor cells, proliferative adipose progenitor cells were passaged for two times when the confluence reaches 70%.
To differentiate into adipocytes, white adipose progenitor cells were cultured in growth media to reach 100% confluence for 1 day. […] After 2-day induction, the media was changed to basal differentiation medium (DMEM high glucose containing 10% FBS, 850 nM insulin, 1% penicillin/streptomycin) and further incubated for 4-5 days. To differentiate beige adipocytes, fully confluent white adipose progenitor cells were incubated with the above induction medium supplemented with 2 mM rosiglitazone and 1 nM T3 for 2 days and further differentiated in the basal differentiation medium supplemented with 1 mM rosiglitazone and 1 nM T3 for 4-5 days.

[2] = tested on: acute myeloid leukemia (AML) cells; settings: AML cells in vitro; cited from earlier work
[3] = tested on: iWAT and eWAT of diet-induced obesity (DIO) mice; test: Oral BI-7273 in DIO mice: WAT beiging, H/E, UCP1 IHC, RT-qPCR, mitochondrial copy number; assay type: in vivo, mouse; settings: for mRNA levels of Ucp1, increase: vs control mice
Experimental: All animal studies were approved by the University of Georgia Institutional Animal Care and Use Committee (IACUC) and performed strictly following the guidelines Animals were housed in a temperature-controlled (22° C.) environment with 12:12-hrs light:dark cycle and allowed food and water […]. All mouse strains were purchased from the Jackson Laboratory: C57BL/6J: #000664; Ucp1-Cre: #024670; ROSA-INTACT: #021039. To generate diet-induced obesity and type 2 diabetes models, 8-week old C57BL/6J mice (both males and females) were fed with a high-fat diet (60% fat, Research Diet, catelog #D12492) for […]. To perform gavage feeding, animals were immobilized by hands and a gavage solution (0.5% Natrosol or 0.5% Natrosol containing BI-7273, […]) was administered through a 1 mL syringe equipped with a disposable gavage needle.
For histology, iWAT was excised from mice and fixed with 10% formalin, dehydrated and embedded in paraffin. The sliced tissue (5 μm) was stained with hematoxylin and eosin Y (Sigma Aldrich). Cell size was quantified by NIH ImageJ (ver 1.47t). Alternative sections were used for immunohistochemistry detection of UCP1 and H/E staining. Paraffin sections were antigen unmasked with Tris-EDTA buffer (10 mM Tris Base, 1 mM EDTA, 0.05% Tween 20, pH 9.0) in 93° C. for 15 min. Sections were blocked with blocking solution (10% normal goat serum and 1% BSA in PBS) for 1 hr at room temperature and incubated with the primary antibody (anti-UCP1, 1:200 diluted in blocking solution) overnight at 4° C. The endogenous peroxidase was quenched with 3% hydrogen peroxide. Sections were incubated with the secondary antibody for 1 hr at room temperature. Slides were developed with DAB (VectorLab) for 5 min followed with hemotoxylin conterstaining for 1 min. Color images were captured on a Leica DM4000B microscope equipped with a DFC450c camera.
Total RNA was isolated from tissue or cell culture using TRIzol. Total RNA (500 ng) from tissues or cell culture was used in 25 μL reverse transcription reactions (Maxima; Life technologies) and diluted into 250 μL. Diluted cDNA (2 μL) was used in quantitative PCR reactions (SsoAdvanced™ Universal SYBR Green mix; Bio-Rad) on a BioRad CFX384™ Real-Time PCR Detection System. Cq-values were determined and expression values were calculated by BioRad CFX Manager™ Software. Relative mRNA expression values were normalized to inner reference genes Rps18 and Tbp of each biological sample. For mitochondrial copy number qPCR, mitochondrial Cox2 gene was amplified and normalized to genomic β-globin gene.
[…]. The efficacy of BI-7273 in inducing beige adipocyte formation in vivo was tested within diet-induced obesity (DIO) and type 2 diabetes mouse models. To generate DIO models, adult C57BL/6 mice (8-week age, both males and females) were fed with a high-fat diet (HFD; 60% calories from fat) for 12 weeks. To administer BI-7273, BI-7273 mixed in 0.5% Natrosol (100 mg/kg/day, 200 uL) was gavaged for 14 days. For the control mice, 0.5% Natrosol in the same volume was gavaged during the same period. The high-fat diet was changed to the normal chow during gavaging to maximize the uptake of BI-7273. DIO models of control and BI-7273 treatment groups were euthanized after 14-day of gavaging and adipose tissues (iWAT and eWAT) were subjected to H/E staining and UCP1 immunohistochemistry (IHC) to identify beige adipocytes. […].

[4] = 10 μM for 48 hours in progenitor stage, then basal differentiation, vs 0.1% DMSO
[5] = eWAT, 100 mg/kg/day gavage for 14 days
[6] = iWAT, 100 mg/kg/day gavage for 14 days

COc1cc(-c2cn(C)c(=O)c3cnccc23)cc(OC)c1CN(C)C [BI-7273, 4-[4-[(dimethylamino)methyl]-3,5-dimethoxyphenyl]-2-methyl-2,7-naphthyridin-1-one]
adipocyte markers (Pparg2, Leptin, Adiponectin, Fabp4) [1, 4]: not affected
mRNA levels of beige lineage markers (Pgc1α, Ucp1, Cedia, Dio2, Elovl3) [1, 4]: drastically increased
mRNA levels of mitochondrial markers (Ndufb2, Sdha, Uqcrc2, Cox8b, Atp5a1) [1, 4]: increased
Pgc1β mRNA level ([1]; proliferative white adipose progenitor cells, vs vehicle): increased
MYC expression [2]: suppress
rapid cell proliferation [2]: suppress
mRNA levels of Pgc1β, increase [3, 5]: 4.9 fold
mRNA levels of Ucp1, increase [3, 5]: 6 fold
Pgc1β expression ([3]; iBAT, limb muscles (TA, EDL), and liver): increased
other beige adipocyte markers (Cedia, Dio2, Elovl3, Cox8b) ([3]; iWAT and eWAT, 100 mg/kg/day gavage for 14 days): increased
overall size of adipocytes ([3]; iWAT and eWAT, 100 mg/kg/day gavage for 14 days, H/E): overtly reduced
multiocular UCP1+pos beige adipocytes ([3]; iWAT and eWAT, 100 mg/kg/day gavage for 14 days, UCP1 IHC): induced the formation
Pgc1α mRNA levels ([3]; iWAT or eWAT, 100 mg/kg/day gavage for 14 days): not affected
mitochondrial genome copy number, higher than control DIO mice ([3]; iWAT, eWAT, iBAT, limb muscles, liver): 2.5-8.5 folds
mRNA levels of Pgc1β, increase [3, 6]: 3.8 fold
mRNA levels of Ucp1, increase [3, 6]: 22 fold

From patent publication US20210198629A1, “COMPOSITIONS AND METHODS FOR INCREASING BEIGING OF WHITE ADIPOSE TISSUE” (University of Georgia Research Foundation, Inc., priority 2018, published 2021)
